From patent publication EP0213490A2, “Colour-photographic recording material” (Agfa-Gevaert AG, priority 1985, dated 1987) come the findings set out here.

Series [1] in a line: Solubility determination in ethyl acetate (parts by weight of solvent needed to dissolve one part of yellow dye). It counts as physicochemical. As to conditions: Ethylacetat, 60°C. As to the method: Von den erfindungsgemäßen Verbindungen II-1, 11-5 und III-1 sowie von den strukturanalogen Vergleichsverbindungen V-1, V-2, V-3, V-4, V-5 und V-6 wurden deren Löslichkeit in Ethylacetat bei 60°C bestimmt. Hierzu wurde ermittelt, wieviele Gewichtsteile Lösungsmittel zum Lösen eines Gewichtsteils Gelbfarbstoff erforderlich sind. Die miteinander zu vergleichenden Farbstoffe unterschieden sich jeweils ausschließlich in der Substitution des Phenylazorestes

Series [2] can be described thus: Dissolving the mask coupler in tricresyl phosphate/ethyl acetate for dispersion preparation. The conditions noted are these: 55°C. It counts as physicochemical. As to the method:
Von der erfindungsgemäßen Verbindung 11-1 wurde die Dispersion la und von der betreffenden Vergleichsverbindung V-2 wurde die Dispersion lb jeweils nach der nachfolgend beschriebenen Vorschrift hergestellt. 100 g Maskenkuppler werden in einer Abmischung aus 100 g Trikresylphosphat und 300 g Ethylacetat bei 55^*C gelöst. […] Die Lösung wird in 1 kg einer 7,5 %igen wäßrigen Gelatine, die ebenfalls auf 55°C erhitzt ist und mit 10 g Alkanol XC versehen war, mit einem hochtourigen Mischer einemulgiert. Anschließend wurde das niedrig siedende Lösungsmittel im Vakuum entfernt und die zurückbleibende Dispersion bei 6°C erstarrt.
Gemäß der im Beispiel 2 beschriebenen allgemeinen Vorschrift wurde aus der erfindungsgemäßen Verbindung 11-5 die Dispersion 2a und aus der betreffenden Vergleichsverbindung V-4 die Dispersion 2b hergestellt. (Die Vergleichsverbindung V-4 mußte, damit sie in Lösung ging, in der hydrophoben Dispersionsphase auf 70°C erhitzt werden).

Molecules are shown by their SMILES.

On to `CCCCCCCCCCCCCC(=O)Nc1ccc(Cl)c(NC2=NN(c3c(Cl)cc(Cl)cc3Cl)C(=O)C2N=Nc2ccc(OCCC)c(OCCC)c2)c1` (centres unmarked) [V-3], for which the “1 Gew.-Teil Verbindung löst sich in X Gew.-Teilen Ethyl-acetat” value (shortened to “1 Gew.-Teil Verbindung löst sich”) in series [1] is 23 Gew.-Teilen Ethyl-acetat.
For the compound `CCCCCCCCCCCCCC(=O)Nc1ccc(Cl)c(NC2=NN(c3c(Cl)cc(Cl)cc3Cl)C(=O)C2N=Nc2ccc(OCC)c(OCC)c2)c1` (centres unmarked) [V-2], the “Dissolution of 100 g Maskenkuppler in 100 g Trikresylphosphat and 300 g Ethylacetat” value in series [2] was “mußte neben Ethylacetat noch soviel Tetrahydrofuran zugesetzt werden, daß sie bei 55 °C in Lösung ging”. Also, in series [1], the “1 Gew.-Teil Verbindung löst sich” value is reported as 19 Gew.-Teilen Ethyl-acetat.
On to `CCCCCCCCCCCCCC(=O)Nc1ccc(Cl)c(NC2=NN(c3c(Cl)cc(Cl)cc3Cl)C(=O)C2N=Nc2ccc(OC)c(OC)c2)c1` (centres unmarked) [V-1], for which the “1 Gew.-Teil Verbindung löst sich” value in series [1] is on record as 15 Gew.-Teilen Ethyl-acetat.
On to `CCCCCCCCCCCCCC(=O)Nc1ccc(Cl)c(NC2=NN(c3c(Cl)cc(Cl)cc3Cl)C(=O)C2N=Nc2ccc(OC(C)C)c(OC(C)C)c2)c1` (centres unmarked) [II-1], for which the “1 Gew.-Teil Verbindung löst sich” value in series [1] is 2,5 Gew.-Teilen Ethyl-acetat.
